Test results from PubChem BioAssay AID248 (DTP/NCI, 2004).
“And” between values parts separate entries of the source, which are not always exact repeats. Equal entries are not always repeated. Inconclusive results and toxic doses are left out. Cut-off read from the data, not from the text of the source: active = T/C of 150% or more; inactive = T/C below 125%.

Test system: L1210 leukemia ip in BDF1 mice, survival T/C
Assay: NCI In Vivo Anticancer Drug Screen. Data for tumor model L1210 Leukemia (intraperitoneal) in B6D2F1 (BDF1) mice
Conditions: endpoint: mean survival time, higher = longer survival
Summary of the method: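 Transplantable tumor model; survival measured in treated vs vehicle control mice. Value = treated/control.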

[1] = dose: 50.0 mg/kg/injection, schedule: Q04DX003 (ip), vehicle: saline
[2] = dose: 100.0 mg/kg/injection, schedule: Q01DX001 (ip), vehicle: saline
[3] = dose: 100.0 mg/kg/injection, schedule: Q04DX003 (ip), vehicle: saline
[4] = dose: 200.0 mg/kg/injection, schedule: Q01DX001 (ip), vehicle: saline
[5] = dose: 200.0 mg/kg/injection, schedule: Q04DX003 (ip), vehicle: saline
[6] = dose: 100.0 mg/kg/injection, schedule: Q01DX001 (ip), vehicle: other
[7] = dose: 200.0 mg/kg/injection, schedule: Q01DX001 (ip), vehicle: other
[8] = dose: 400.0 mg/kg/injection, schedule: Q01DX001 (ip), vehicle: other
[9] = dose: 100.0 mg/kg/injection, schedule: Q01DX009 (ip), vehicle: Klucel (hydroxypropylcellulose) (HPC)
[10] = dose: 100.0 mg/kg/injection, schedule: Q04DX003 (ip), vehicle: Klucel (hydroxypropylcellulose) (HPC)
[11] = dose: 200.0 mg/kg/injection, schedule: Q01DX009 (ip), vehicle: Klucel (hydroxypropylcellulose) (HPC)
[12] = dose: 200.0 mg/kg/injection, schedule: Q04DX003 (ip), vehicle: Klucel (hydroxypropylcellulose) (HPC)
[13] = dose: 400.0 mg/kg/injection, schedule: Q04DX003 (ip), vehicle: Klucel (hydroxypropylcellulose) (HPC)
[14] = dose: 100.0 mg/kg/injection, schedule: Q01DX001 (ip), vehicle: Klucel (hydroxypropylcellulose) (HPC)
[15] = dose: 200.0 mg/kg/injection, schedule: Q01DX001 (ip), vehicle: Klucel (hydroxypropylcellulose) (HPC)
[16] = dose: 400.0 mg/kg/injection, schedule: Q01DX001 (ip), vehicle: Klucel (hydroxypropylcellulose) (HPC)
[17] = dose: 100.0 mg/kg/injection, schedule: Q01DX001 (ip), vehicle: carboxymethylcellulose (CMC)
[18] = dose: 200.0 mg/kg/injection, schedule: Q01DX001 (ip), vehicle: carboxymethylcellulose (CMC)
[19] = dose: 400.0 mg/kg/injection, schedule: Q01DX001 (ip), vehicle: carboxymethylcellulose (CMC)
[20] = dose: 25.0 mg/kg/injection, schedule: Q01DX009 (ip), vehicle: saline with Tween-80
[21] = dose: 25.0 mg/kg/injection, schedule: Q04DX003 (ip), vehicle: saline
[22] = dose: 50.0 mg/kg/injection, schedule: Q01DX009 (ip), vehicle: saline with Tween-80
[23] = dose: 100.0 mg/kg/injection, schedule: Q01DX009 (ip), vehicle: saline with Tween-80
[24] = dose: 100.0 mg/kg/injection, schedule: Q04DX003 (ip), vehicle: saline with Tween-80
[25] = dose: 400.0 mg/kg/injection, schedule: Q04DX003 (ip), vehicle: saline with Tween-80
[26] = dose: 50.0 mg/kg/injection, schedule: Q04DX003 (ip), vehicle: Klucel (hydroxypropylcellulose) (HPC)
[27] = dose: 400.0 mg/kg/injection, schedule: Q01DX001 (ip), vehicle: saline
[28] = dose: 50.0 mg/kg/injection, schedule: Q01DX009 (ip), vehicle: Klucel (hydroxypropylcellulose) (HPC)
[29] = dose: 400.0 mg/kg/injection, schedule: Q04DX003 (ip), vehicle: saline

Measured: T/C

CC(=O)/C(=C/c1ccccc1)N=P(c1ccccc1)(c1ccccc1)c1ccccc1
inactive: [1] 90 % of control | [2] 87 % of control | [3] 92 % of control | [4] 89 % of control | [5] 90 % of control

CCOC(=O)c1cc([N+](=O)[O-])ccc1N=Nc1cc(OC)c(N)cc1OC
inactive: [6] 111 % of control | [7] 103 % of control | [8] 103 % of control

C/C(CC(C)C)=N/Nc1nc(C)cc(=O)[nH]1
inactive: [9] 92 % of control | [10] 105 % of control | [11] 97 % of control | [12] 100 % of control | [13] 92 % of control

Cc1cc(OCCBr)ccc1[N+](=O)[O-]
inactive: [14] 92 % of control | [15] 95 % of control | [16] 95 % of control

COc1cc(C)c(C(=O)c2ccccc2N)cc1OC
inactive: [17] 105 % of control | [18] 118 % of control | [19] 96 % of control

Clc1ccc2c(c1)C(Br)c1cc(Cl)cc(Cl)c1-2 (centres undefined)
inactive: [20] 102 % of control | [21] 102 % of control | [22] 94 % of control | [1] 102 % of control | dose: 100.0 mg/kg/injection, schedule: Q01DX001 (ip), vehicle: acetone 94 % of control | [23] 93 % of control | [3] 91 % of control

CC1(C)c2ccccc2-c2nc3ccccc3nc2C1O (centres undefined)
inactive: [14] 94 % of control | [15] 97 % of control | [16] 103 % of control

N#[N+]c1ccccc1-c1nc(N)nc(N)n1
inactive: dose: 25.0 mg/kg/injection, schedule: Q01DX009 (ip), vehicle: saline 110 % of control | [21] 113 % of control | dose: 50.0 mg/kg/injection, schedule: Q01DX009 (ip), vehicle: saline 100 % of control | [1] 103 % of control | [2] 99 % of control | dose: 100.0 mg/kg/injection, schedule: Q01DX009 (ip), vehicle: saline 92 % of control | [3] 96 % of control

Cn1nnc2nnc(-c3ccccc3)n21
inactive: [23] 100 % of control | [24] 95 % of control | dose: 200.0 mg/kg/injection, schedule: Q01DX009 (ip), vehicle: saline with Tween-80 94 % of control | dose: 200.0 mg/kg/injection, schedule: Q04DX003 (ip), vehicle: saline with Tween-80 106 % of control | dose: 400.0 mg/kg/injection, schedule: Q01DX009 (ip), vehicle: saline with Tween-80 108 % of control | [25] 98 % of control

C=CCc1cc(CNCCCO)c(O)c(OC)c1
inactive: dose: 25.0 mg/kg/injection, schedule: Q04DX003 (ip), vehicle: Klucel (hydroxypropylcellulose) (HPC) 93 % of control | [26] 95 % of control | [10] 93 % of control

O=C(CCC(C(=O)Nc1ccccc1)C(O)(c1ccccc1)c1ccccc1)Nc1ccccc1 (centres undefined)
inactive: [6] 91 % of control | [7] 91 % of control | [8] 89 % of control

CCCCC(CC)COP(=S)(S)OCC(CC)CCCC.[Sn] (centres undefined)
inactive: [10] 100 % of control | [12] 99 % of control | [13] 96 % of control

CCOc1ccccc1C1CCCCC1OS(=O)(=O)c1ccc(C)cc1 (centres undefined)
inactive: dose: 50.0 mg/kg/injection, schedule: Q01DX009 (ip), vehicle: acetone 92 % of control | dose: 100.0 mg/kg/injection, schedule: Q01DX009 (ip), vehicle: acetone 94 % of control and 92 % of control | dose: 200.0 mg/kg/injection, schedule: Q01DX009 (ip), vehicle: acetone 105 % of control and 90 % of control

CN(C)/C(=C\C(=O)c1ccccc1)c1ccccc1
inactive: [24] 90 % of control | [25] 86 % of control

C/C(=N/NC(N)=S)c1ccc(F)cc1
inactive: dose: 9.38 mg/kg/injection, schedule: Q01DX009 (ip), vehicle: Klucel (hydroxypropylcellulose) (HPC) 95 % of control | dose: 18.75 mg/kg/injection, schedule: Q01DX009 (ip), vehicle: Klucel (hydroxypropylcellulose) (HPC) 92 % of control

CC1(C)CNC(=O)O1
inactive: [2] 108 % of control | [4] 111 % of control | [27] 100 % of control

CC[C@@H]1C[C@@H]2CN3CCc4c([nH]c5ccc(OC)cc45)C(C(=O)OC)(C2)C13
inactive: [28] 89 % of control | [9] 94 % of control | [11] 89 % of control

Nc1nc(=S)c2[nH]c(N=Nc3ccc(S(=O)(=O)Nc4ccccn4)cc3)nc2[nH]1
inactive: dose: 25.0 mg/kg/injection, schedule: Q01DX009 (ip), vehicle: Klucel (hydroxypropylcellulose) (HPC) 112 % of control | [28] 100 % of control and 117 % of control and 124 % of control | [26] 106 % of control | [2] 98 % of control | [9] 101 % of control | [10] 117 % of control | [4] 104 % of control | [11] 100 % of control | [27] 104 % of control
active: dose: 6.25 mg/kg/injection, schedule: Q01DX009 (ip), vehicle: Klucel (hydroxypropylcellulose) (HPC) 170 % of control

Oc1ccc(Br)cc1Sc1cc(Br)ccc1O
inactive: [17] 100 % of control | [2] 97 % of control | [18] 103 % of control | [4] 95 % of control | [19] 95 % of control | [27] 95 % of control

Cc1ccc(NC(=O)/C=C/C(=O)Nc2ccc(C)cc2)cc1
inactive: [3] 103 % of control | [5] 100 % of control | [29] 103 % of control

CC1(C)C2CC3C(=CCCC3C(=O)O)C1C2 (centres undefined)
inactive: [10] 97 % of control | [12] 103 % of control | [13] 95 % of control

CCCN1C(=O)C=CC1=O
inactive: [20] 96 % of control | dose: 25.0 mg/kg/injection, schedule: Q04DX003 (ip), vehicle: saline with Tween-80 91 % of control | [22] 96 % of control | dose: 50.0 mg/kg/injection, schedule: Q04DX003 (ip), vehicle: saline with Tween-80 92 % of control | [23] 95 % of control | [24] 97 % of control

CC(=O)Nc1ccc(C=Nc2ccccc2)cc1
inactive: [9] 107 % of control | [10] 96 % of control | [11] 102 % of control | [12] 97 % of control | dose: 400.0 mg/kg/injection, schedule: Q01DX009 (ip), vehicle: Klucel (hydroxypropylcellulose) (HPC) 111 % of control | [13] 97 % of control

CC(/C=C\C1CCCCC1)=C\C=C\C(C)=C\C=N\Nc1ccc([N+](=O)[O-])cc1[N+](=O)[O-]
inactive: dose: 1.56 mg/kg/injection, schedule: Q01DX001 (ip), vehicle: saline with Tween-80 95 % of control | dose: 3.13 mg/kg/injection, schedule: Q01DX001 (ip), vehicle: saline with Tween-80 95 % of control | dose: 6.25 mg/kg/injection, schedule: Q01DX001 (ip), vehicle: saline with Tween-80 95 % of control | dose: 50.0 mg/kg/injection, schedule: Q01DX001 (ip), vehicle: saline with Tween-80 89 % of control

O=S1(=O)CC=CC1
inactive: [3] 103 % of control | [5] 97 % of control | [29] 97 % of control

Cc1ccc(S(=O)(=O)/C(Cl)=C(/Cl)S(=O)(=O)c2ccc(C)cc2)cc1
inactive: dose: 3.12 mg/kg/injection, schedule: Q01DX009 (ip), vehicle: saline 95 % of control | dose: 6.25 mg/kg/injection, schedule: Q01DX009 (ip), vehicle: saline 97 % of control | dose: 6.25 mg/kg/injection, schedule: Q04DX003 (ip), vehicle: saline 88 % of control | dose: 12.5 mg/kg/injection, schedule: Q01DX001 (ip), vehicle: saline 94 % of control | dose: 12.5 mg/kg/injection, schedule: Q01DX009 (ip), vehicle: saline with Tween-80 95 % of control | dose: 12.5 mg/kg/injection, schedule: Q04DX003 (ip), vehicle: saline 92 % of control | dose: 25.0 mg/kg/injection, schedule: Q01DX001 (ip), vehicle: saline 92 % of control | [20] 89 % of control | [4] 103 % of control
